Data taken from a melting point compilation (Tetko et al.; mined from patent text by program, amines drawn as free bases though some values may be those of a salt).

Point of comparison: Cc1c2n(c3ccc(Br)cc13)CCC(Br)C2=O (configuration not stated), melting point 156 °C. Against it:
- CC(=N)Nc1cc(C)ccc1N1CCOCC1 — lower, 121 °C
- Cc1c(C(=O)O)oc(=O)c2ccccc12 — higher, 248 to 249 °C
- C=CCn1ncc2cc3ncc(-c4ccc(OC)c(F)c4)nc3cc21 — lower, 121 to 124 °C
- Cc1c(F)c(N2CCC(N)C2)cc2c1c(=O)c(C(=O)O)cn2C1CC1 (configuration not stated) — higher, > 300 °C
- O=C(Nc1ccc([C@@H]2[C@H]3COC(=O)[C@H]32)c(F)c1)OCc1ccccc1 — lower, 141 to 142 °C
- O=C1Cc2cc(C(O)CN3CCC(O)(c4ccccc4)CC3)ccc2N1 (configuration not stated) — higher, 192 to 194 °C
- C[C@]1(COC(=O)N(c2ccc(Cl)cc2)c2ccc(Cl)cc2)Cn2cc([N+](=O)[O-])nc2O1 — higher, 200 to 201 °C
- COC(=O)c1ccc(F)c2c1CC(N(CCCc1c[nH]c3ccc(F)cc13)C1CCC1)CO2 (configuration not stated) — lower, 110 °C
- CCCCC#CC(C)(O)c1ccc(-c2ccc(F)cc2)cc1 (configuration not stated) — lower, 62 °C
- CCOC(=O)/C=C(C)/C(F)=C/C=C(C)/C=C/c1c(Cl)cc(OC)c(C)c1C — lower, 126 to 128 °C
- Cc1cc(NS(=O)(=O)c2ccccc2)cc(C)c1S(=O)C[N+](=O)[O-] (configuration not stated) — not separable, > 50 °C
- COC(=O)c1cc(N(C)C(C)=O)c(Cl)c(N(C)C(C)=O)c1 — higher, 162 to 164 °C
- O=C(Nc1cc2cccnc2cc1N1CCCCC1)c1csc2cncnc12 — higher, > 300 °C
- C#CCn1cc(CO)c(C(F)(F)F)c1 — lower, 45 °C
- Cc1c(C(=O)N2C[C@@H](C)N[C@@H](C)C2)c2ccccc2n2cnc(C(=O)OC(C)(C)C)c12 — higher, 228 to 232 °C
- COc1ccc2c(n1)CC(=O)N2CCCBr — lower, 82 to 83 °C
- N#CCc1ccc(OCCc2coc(-c3ccccc3)n2)cc1 — lower, 81 to 83 °C
- COC(=O)Nc1ccc(OCc2nc3ccc(OC)cc3s2)cc1C — lower, 123 to 125 °C
- Cn1nc(C(F)(F)F)c(CS(=O)C2=NOC(C)(C)C2)c1OC(F)F (configuration not stated) — lower, 112 to 114 °C
- CC(C)(SCc1ccccn1)C(NS(=O)(=O)c1ccc(Oc2ccc(-c3ccoc3)cc2)cc1)C(=O)O (configuration not stated) — higher, 185 to 189 °C
- CC(=NNC(N)=O)c1ccc(Nc2nccc(-c3cccnc3)n2)cc1 — higher, 256 to 258 °C
- COc1ccc2c(c1)CC(C(=O)NCc1ccc(C(=O)O)cc1)N2S(=O)(=O)c1ccc(-c2ccc(F)cc2F)cc1 (configuration not stated) — lower, 143 °C
- Nc1ncc(-c2ccnc(N3CCOCC3)n2)c2ccccc12 — higher, 255 to 256 °C
- CCNC(C)CN1CCc2c(c(=O)oc3cc(OC)ccc23)C1 (configuration not stated) — lower, 97 to 100 °C
- CCn1cc(C(=O)O)c(=O)c2cc(F)c(N3CC(CNC)C3)nc21 — higher, 180 to 182 °C
- N#CC(c1ccccc1)(c1ccccc1)[C@H]1CCCN(CCc2ccc(Cl)cc2)C1 — lower, 129 to 131 °C
- Cc1cccc(-c2c3c(cc4ccc5c(c24)OCO5)C(=O)NC3=O)c1 — higher, 261 to 264 °C
- CN(C)C1CCN(C(=O)C2CCC(c3[nH]nc4c3C(=O)c3c(NC(=O)NN5CCOCC5)cccc3-4)CC2)C1 (configuration not stated) — higher, 191 to 193 °C
- O=C(c1cc(C(F)(F)F)cc(C(F)(F)F)c1)N1CCN(CCCC2(c3ccc(F)cc3)OCCO2)C[C@H]1Cc1c[nH]c2ccccc12 — lower, 145 to 146 °C
- CCOP(=O)(Cc1ccc(NC(=O)/C=C/c2cnn(C)c2-c2ccc(F)cc2)cc1)OCC — higher, 208 to 209 °C
- COC(=O)Cc1csc(NC(C)=O)n1 — lower, 122 to 123 °C
- COC(=O)C(C)(C)C(Cc1ccccc1)NCc1ccccc1 (configuration not stated) — lower, 92 to 94 °C
- NC(=O)c1[nH]c2ccccc2c1-c1ccc(NC(=O)Nc2ccccc2F)cc1 — lower, 146 to 148 °C
- COc1c(N2C[C@H](CF)[C@](C)(N)C2)c(F)cc2c(=O)c(C(=O)O)cn([C@@H]3C[C@@H]3F)c12 — higher, 187 to 189 °C
- O=c1ccsn1Cc1ccc(Cl)cc1 — lower, 88 to 90 °C
- NS(=O)(=O)c1cc(C(=O)O)cc(OCc2ccccc2)c1Cc1ccccc1 — higher, 250 to 251 °C
- O=C(O)CC1=CSCCS1 — lower, 82 °C
- CCOC(=O)Cc1nc2c(OCc3ccccc3)cccc2n1C — lower, 106 °C
- COc1ccc(-c2cn3ccc(C)cc3n2)cc1OC — higher, 163 °C
- CCOC(=O)c1cc2c3n(ccc-2n1)C([N+](=O)[O-])C(C)=N3 (configuration not stated) — higher, 300 to 302 °C
- CCOc1nn(-c2ccc(C(F)(F)F)cn2)cc1CCO — lower, 75 to 76 °C
- O=C(O)C(=CNc1ccc(OCc2ccccc2)c(OCc2ccccc2)c1)C(=O)O — lower, 73 to 76 °C
- CCOC(=O)c1ncn(C)c1N — higher, 193 to 194 °C
- CCCCCCCCCCCCC1=C(O)C(=O)c2c(C)cccc2C1=O — lower, 92 to 93 °C
- CN(C=O)C1(C(=O)O)CC1 — higher, 210 °C
- CCOC(=O)N1CCN(c2ccc(-n3cnn(C(C)(C)C(O)c4ccc(Cl)cc4)c3=O)cc2)CC1 (configuration not stated) — lower, 108 °C
- COc1cnnc(Oc2ccnc(OC(F)F)c2)c1 — lower, 119 to 120 °C
- COc1ccc2c(c1)CCc1nn(-c3nc4ccccc4s3)c(O)c1-2 — higher, 182 to 183 °C
- CCOC(=O)c1oc(Cl)nc1C — lower, 55 to 58 °C
- COc1ccc(SCCNC(=O)c2ccc(OCC=C(C)CCC=C(C)C)cc2)nc1 — lower, 82.6 to 83.4 °C
- N#Cc1[nH]c2ccc([N+](=O)[O-])cc2c1-c1ccccc1 — higher, 242 to 254 °C
- CCC(O)(C#Cc1ncn2c1CN(C)C(=O)c1cc(F)ccc1-2)CC — lower, 135 to 136 °C
- CC(=O)Nc1ccc(-c2cccc(C3=NC(C)(C)Cc4cc(O)c5c(c43)CC(C)(C)O5)c2)cc1 — higher, 185 to 189 °C
- C[C@]1(CN2CCN(C(=O)CSc3ccc(Cl)cc3)CC2)Cn2cc([N+](=O)[O-])nc2O1 — lower, 142 to 145 °C
- COc1ccc(CNc2nc(CCCC(=O)O)nc3oc4c(c23)CCCC4)cc1Cl — higher, 205 °C
- COc1c2occc2cc2c(C)cc(=O)oc12 — higher, 167 to 168 °C
- N#CC=Cc1ccc(C=Cc2ccc(Br)cc2)cc1 — higher, 258 °C
- CCCN(CC)C1(c2ccccc2)c2ccccc2OC1[N+](=O)[O-] (configuration not stated) — lower, 99 to 100 °C
- CC(C)c1ccc2c(c1)c(Sc1ccccc1)c(CCC(=O)O)n2Cc1ccc(Cl)cc1 — lower, 149 to 150 °C
- CCCCCCCCCCCCCCCCNC(=O)c1cc(OCCS(C)(=O)=O)c2ccccc2c1O — lower, 107 to 109 °C
- N#Cc1ccc(OCC(O)CN2CC3CC(C2)CN(C(=O)Oc2ccc(F)cc2)C3)cc1 (configuration not stated) — lower, 145 to 146 °C
- CCCc1cc(Cl)c2oc(Cc3ccc(OC(C)=O)cc3)c(C)c2c1OC(C)=O — lower, 119 to 120 °C
- Cc1ccc(S(=O)(=O)OCC2Cc3cc(Cl)cc(C(C)(C)C)c3O2)cc1 (configuration not stated) — lower, 74 to 77 °C
- Cc1cccc(NC(=O)NCC(=O)N(CC(=O)N(C)c2ccccc2)c2ccccc2)c1 — higher, 168 °C
- CC(C)(C)OC(=O)N1CCn2c(c(C(N)=O)c(C#N)c2C2CC2)C1 — higher, 221 to 222 °C
- COc1cc(OC)cc(-c2nc[nH]c2-c2ccc(N(C)C)cc2)c1 — lower, 79 to 81.1 °C
- CCOC(=O)C(C)(C)c1ccc(C(O)CCCN2CCC(=C3c4ccccc4CCc4ccccc43)CC2)cc1 (configuration not stated) — lower, 142 to 144 °C
- Oc1ccc(C(=C2CCNCC2)c2ccccc2)cc1 — higher, > 260 °C
- CC(C)C(=O)N[C@@H](CS)C(=O)NCCSC(=O)C(C)(C)C — lower, 120 to 122 °C
- COc1cc(COc2ncccc2C#N)ccc1OCc1nc(-c2ccco2)oc1C — lower, 137 to 138 °C
- CC(C)[C@H](NC(=O)OCc1ccccn1)C(=O)N[C@@H](Cc1ccccc1)[C@H](O)[C@H](O)[C@H](Cc1ccccc1)NC(=O)OCc1cccnc1 — higher, 166 to 168 °C
- Cc1ccc([N+](=O)[O-])c(C=C(C(=O)O)C(=O)O)c1 — higher, 180 to 182 °C
- CN1CC[C@@H](c2c(O)cc(O)c3c(=O)cc(-c4cccs4)oc23)[C@@H]1CO — higher, 218 to 220 °C
- Cc1ccc(S(=O)(=O)N(C)c2ccc(Cl)cc2C(=O)O)cc1 — higher, 175 to 177 °C
- CCCN(Cc1cccc(C(=N)N)c1)C(=O)Nc1ccc(-c2ccccc2S(=O)(=O)NC(C)(C)C)cc1 — higher, 201 to 202 °C
- CN(C)CCc1ccc(OCCCNc2nc(N)nn2C)cc1 — lower, 125 to 126 °C
- CC(C)(C)C(=O)ON1C(C)(C)CC(OC(=O)CCCCCCCCC(=O)OC2CC(C)(C)N(OC(=O)C(C)(C)C)C(C)(C)C2)CC1(C)C — lower, 93 to 97 °C
- Cc1cc(CCC(=O)OC(C)(C)C)nc(-c2nc(=O)c3ccc(Cl)cc3s2)c1 — higher, 162 to 163 °C
- CCCc1c(OCCCCCOc2c(C(C)=O)ccc(OCC(=O)O)c2CCC)ccc(C(C)=O)c1O — lower, 86 to 89 °C
- CCOC(=O)[C@H](Cc1ccc(-c2c(OC)cc(CN3CCSCC3)cc2OC)cc1)NC(=O)c1c(Cl)cccc1Cl — lower, 86 to 89 °C
- O=C(O)CCSc1cccc(Br)c1 — lower, 87 to 88 °C
- NS(=O)(=O)c1cnc(S(=O)(=O)c2ccccc2)s1 — lower, 119 to 120 °C
- COc1ccc(N2C(=O)C3=C(SCCS3)C2OC(=O)N2CCN(C)CC2)nn1 (configuration not stated) — higher, 196 to 198 °C
- O=C1c2cccc3c2N(CC3)c2ccc(Br)cc2N1CC#CCN1CCCC1 — lower, 121 to 122 °C
- N#CNC(=Nc1ccncc1)NCCOc1ccccc1 — higher, 167 to 170 °C
- CCc1nc2c(N)nc3cc(OCCN4CCOCC4)ccc3c2n1CC1CCOCC1 — higher, 230 to 232 °C
- O=C(CN1C(=O)CC1SCc1ccccc1)NCCCCCCc1ccc(F)cc1F (configuration not stated) — lower, 65 to 66 °C
- CC(=O)NNc1nc(C(F)(F)F)nc(-c2ccccc2)c1-c1ccccc1 — lower, 113 to 116 °C
- O=[N+]([O-])c1cccc(NS(=O)(=O)c2ccccc2)c1 — lower, 132 to 134 °C
- CCOc1cccc(-c2cnn3c(-c4cccc(NC(=O)CC(C)C)c4)ccnc23)c1 — not separable, 156 to 158 °C
- CCCC(CCC)C(=O)OC1N=C(c2ccccc2Cl)c2cc(Cl)ccc2NC1=O (configuration not stated) — higher, 191 to 193 °C
- COc1ccc(C(Sc2cc(Oc3ccc(F)cc3)ccc2N)C(O)C(=O)O)cc1 (configuration not stated) — higher, 190 to 193 °C
- CCOC(=O)c1cnc(Oc2cc(OCCOC)ccc2CCCOC(=O)NCC2CC2)c(Cl)c1 — lower, 94.6 to 94.8 °C
- CC(=O)SCCC(=O)[C@H]1CC[C@H]1C(=O)O (relative stereo) — lower, 50 to 54 °C
- N#Cc1c(N)nc2ccc([N+](=O)[O-])cc2c1NCc1cccs1 — higher, 277 to 280 °C
- CC(=O)c1ccc(CC(C)NCC(O)c2ccccc2)cc1 (configuration not stated) — lower, 120 to 135 °C
